Where two headings read alike, the source gives them in different places.
Assays:
[1] = test system: Candida albicans ATCC 11651; test: In vivo systemic Candida infection in mice, primary assay; parameters: species or system Candida albicans; CF-1 female mice; conditions: Candida albicans, 150 mg/kg per day, read-out: % Survival
Summary of the method: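 CF-1 female mice (20 g, 10 per group) were infected IV with 0.2 ml of 1×10^7/ml C. albicans ATCC 11651, then given test compound subcutaneously at 50 or 150 mg/kg/day at 1 and 6 h post-infection and once daily for three more days. Survival was followed for 21 days against infected untreated mice; ≥70% protection at 14 days was scored active.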

[2] = test system: Cercosporidium personatum; test: Example B Peanut Late Leafspot; type: in vivo; conditions: Nothopassalora personata, read-out: disease control rating, Ex. B
Summary of the method: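 Each compound is first taken up in acetone, which makes up 6% of the final spray volume. It is then suspended in purified water with 250 ppm TREM 014 at 100 or 20 ppm. Seedlings of peanut are sprayed until run-off.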

Botrytis cinerea = test: Example C bean grey mold; type: in vivo; conditions: Botrytis cinerea, 24 h, read-out: disease control rating, Ex. C
Summary of the method: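 Compound is first dissolved in acetone, the acetone making up 6% of the final volume. The solution is then suspended in purified water with 250 ppm of the polyhydric alcohol ester surfactant TREM 014 to give 100 or 20 ppm. Seedlings of broad bean receive this spray until liquid runs off.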

Pyricularia oryzae = test: whole plant or invertebrate; type: in vivo; conditions: Pyricularia oryzae, 120 h; for pest or weed control at 100 ppm: read-out: disease control rating, Ex. E, 100 PPM
Puccinia recondita = test: Example G wheat leaf rust; type: in vivo; conditions: read-out: disease control rating, Ex. G
Sclerotium rolfsii = test: Example M southern blight; type: in vivo; conditions: Agroathelia rolfsii, 336 h; 5 kg/ha; read-out: disease control rating, Ex. M
Experimental: […] Seeds and soil were then inoculated with a mixture of sand, cereal and mycelium of the fungus Sclerotium rolfsii, causal agent of sourthern blight, and incubated in a growth chamber at 30° C. for 14 days. Disease ratings were then made.

BARNYARDGRASS = test: Test C rice paddy; type: in vivo, Echinochloa crusgalli; conditions: Echinochloa crus-galli, 504 h, 21 days, read-out: plant response; for pest or weed control at 64 g/ha: 0064 G/HA; for pest or weed control at 125 g/ha: 0125 G/HA; for pest or weed control at 250 g/ha: 0250 G/HA; for pest or weed control at 500 g/ha: 0500 G/HA
From the text: (§1) Sixteen cm diameter Airlite plastic pots were partially filled with Tama slit loam soil and the soil saturated with water. Japonica and Indica rice seedlings a the 2.0 to 2.5 leaf stage were transplanted into 1/3 of the pots. Into another third of the pots were transplanted seedling or sprouted tubers of water plantain (Alisma trivale), Scripus (Scirpus paludosus), Cyperus (Cyperus esculentus), and arrowhead (Sagittaria spp.). The remaining pots were planted with barnyardgrass (Echinochloa crusgalli) seeds and sprouted tubes of water chestnut (Eleocharis spp.). These weeds all represent major rice weeds or genera of weeds important in rice. Three to four days after planting, the water level was raised to 3 cm (about 1200 ml/pot) and maintained a this level throughout the test. Chemical treatments were applied directly to the paddy water, within 24 hours of raising the water, after being formulated in a nonphytotoxic solvent. The pots were maintained in the greenhouse.

WATERCHESTNUT = test: Test C rice paddy; type: in vivo, Eleocharis spp.; conditions: Eleocharis, 504 h, 21 days, read-out: plant response; for pest or weed control at 64 g/ha: 0064 G/HA; for pest or weed control at 125 g/ha: 0125 G/HA; for pest or weed control at 250 g/ha: 0250 G/HA; for pest or weed control at 500 g/ha: 0500 G/HA
From the text: as §1

PURPLE NUTSEDGE = test: Test D; type: in vivo, Cyperus rotundus
CMN CHICKWEED = test: Test E; type: in vivo, Stellaria media; conditions: PREEMERGENCE 0250 GM/HA
LAMBSQUARTER = test: Test E; type: in vivo, Chenopodium album; conditions: PREEMERGENCE 0250 GM/HA
WILD BUCKWHEAT = test: Test E; type: in vivo, Polygonum convolvulus; conditions: PREEMERGENCE 0250 GM/HA
WILD RADISH = test: Test E; type: in vivo, Raphanus raphanistrum; conditions: PREEMERGENCE 0250 GM/HA
JET RAPE = test: Test E; type: in vivo, Brassica napus cv. Jet Neuf; conditions: PREEMERGENCE 0250 GM/HA

Row | SMILES | responders at 150 mg/kg ([1]; ATCC11651, 168 h, day 7) [%] | responders at 150 mg/kg ([1]; ATCC11651, 336 h, day 14) [%] | responders at 150 mg/kg ([1]; ATCC11651, 504 h, day 21) [%] | pest or weed control at 100 ppm (Botrytis cinerea) [%] | pest or weed control at 100 ppm (Pyricularia oryzae) [%] | pest or weed control at 5000 g/ha (Sclerotium rolfsii) [%] | pest or weed control at 64 g/ha (BARNYARDGRASS) [%] | pest or weed control at 125 g/ha (BARNYARDGRASS) [%] | pest or weed control at 250 g/ha (BARNYARDGRASS) [%] | pest or weed control at 500 g/ha (BARNYARDGRASS) [%] | pest or weed control at 1000 g/ha (BARNYARDGRASS) [%] | pest or weed control at 64 g/ha (WATERCHESTNUT) [%] | pest or weed control at 125 g/ha (WATERCHESTNUT) [%] | pest or weed control at 250 g/ha (WATERCHESTNUT) [%] | pest or weed control at 500 g/ha (WATERCHESTNUT) [%] | pest or weed control at 1000 g/ha (WATERCHESTNUT) [%] | plant response (PURPLE NUTSEDGE; POSTEMERGENCE 0250 GM/HA) [%] | plant response (PURPLE NUTSEDGE; POSTEMERGENCE 0500 GM/HA) [%] | plant response (PURPLE NUTSEDGE; PREEMERGENCE 0250 GM/HA) [%] | plant response (PURPLE NUTSEDGE; PREEMERGENCE 0500 GM/HA) [%] | further results
1 | C=C(c1ccccc1Cl)C(O)(Cn1cncn1)c1ccc(Cl)cc1Cl (stereo not drawn) [Example 33, 2-(2,4-Dichlorophenyl)-3-(2-chlorophenyl)-1-(1H-1,2,4-triazol-1-yl)-3-buten-2-ol] | 100 | 100 | 100 | 56 | 0 | 0 | 0 | 10 | 80 | 70 | 95 | 0 | 0 | 0 | 0 | 0 | 0 | 0 | 0 | 0 | pest or weed control at 20 ppm ([2]; 20 PPM): 99%; pest or weed control at 20 ppm (Botrytis cinerea; 20 PPM): 37%; pest or weed control at 20 ppm (Pyricularia oryzae; read-out: disease control rating, Ex. E, 20 PPM): 0%; pest or weed control at 20 ppm (Puccinia recondita; 20 PPM): 100%; plant response (PURPLE NUTSEDGE; POSTEMERGENCE 1000 GM/HA): 0%; plant response (PURPLE NUTSEDGE; PREEMERGENCE 1000 GM/HA): 0%
2 | C=C(c1ccccc1Cl)C(O)(Cn1cncn1)c1ccc(F)cc1F (stereo not drawn) [Example 35] | 100 | 100 | 90 | 96 | 0 | 0 | 70 | 100 | 80 | 100 | 95 | 60 | 40 | 60 | 0 | 0 | 0 | 0 | 0 | 50 | pest or weed control at 100 ppm [2]: 100%; pest or weed control at 100 ppm (Puccinia recondita): 96%; plant response (PURPLE NUTSEDGE; PREEMERGENCE 0125 GM/HA): 0%
3 | C=C(c1ccccc1)C(O)(Cn1cncn1)c1ccc(Cl)cc1Cl (stereo not drawn) [Example 50, 2-(2,4-Dichlorophenyl)-3-phenyl-1-(1H-1,2,4-triazol-1-yl)-3-buten-2-ol] | 100 | 90 | 50 | 98 | 86 |  | 0 | 0 | 60 | 70 | 70 | 0 | 0 | 0 | 0 | 0 | 0 | 0 | 0 | 30 | pest or weed control at 100 ppm [2]: 100%; pest or weed control at 100 ppm (Puccinia recondita): 100%; plant response (PURPLE NUTSEDGE; PREEMERGENCE 0064 GM/HA): 0%; plant response (PURPLE NUTSEDGE; PREEMERGENCE 0125 GM/HA): 0%
4 | C=C(c1ccc(Cl)cc1Cl)C(O)(Cn1cncn1)c1ccccc1F (stereo not drawn) [Example 107] |  |  |  |  |  |  | 0 | 0 | 40 | 90 | 80 | 0 | 0 | 40 | 60 | 30 |  |  |  |  | plant response (CMN CHICKWEED): 0%; plant response (LAMBSQUARTER): 90%; plant response (WILD BUCKWHEAT): 0%; plant response (WILD RADISH): 60%; plant response (JET RAPE): 30%
